Test results taken from ChEMBL document CHEMBL1201862, “PubChem BioAssay data set” (2004).
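Protocol summary: plate cells (96-well), add compound at 5 concentrations, incubate 48 h, interpolate endpoints linearly. The concentration for 50% growth inhibition is given as GI50.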 Activity calls are given as the source filed them. Cut-off read from the data, not from the text of the source: active = GI50 up to about 1.1 µM and inactive = higher.

Legend:
Experiment in all cases: NCI-60 cell line screen, 48 h
UO-31 = tested on: UO-31
SF-539 = tested on: SF-539
NCI-H460 = tested on: NCI-H460
RPMI-8226 = tested on: RPMI-8226
OVCAR-4 = tested on: OVCAR-4
HCT-116 = tested on: HCT-116
ACHN = tested on: ACHN
NCI-H23 = tested on: NCI-H23
Malme-3M = tested on: Malme-3M
OVCAR-5 = tested on: OVCAR-5
UACC-62 = tested on: UACC-62
MDA-MB-435 = tested on: MDA-MB-435
SF-295 = tested on: SF-295
MDA-MB-231 = tested on: MDA-MB-231
SNB-75 = tested on: SNB-75
SK-MEL-5 = tested on: SK-MEL-5
EKVX = tested on: EKVX
HOP-62 = tested on: HOP-62
M14 = tested on: M14
SW-620 = tested on: SW-620
T47D = tested on: T47D
LOX IMVI = tested on: LOX IMVI
MCF7 = tested on: MCF7
TK-10 = tested on: TK-10
NCI-H226 = tested on: NCI-H226
PC-3 = tested on: PC-3
MDA-N = tested on: MDA-N
HCT-15 = tested on: HCT-15
HCC 2998 = tested on: HCC 2998
SK-OV-3 = tested on: SK-OV-3
BT-549 = tested on: BT-549
A549 = tested on: A549
IGROV-1 = tested on: IGROV-1
SN12C = tested on: SN12C
OVCAR-3 = tested on: OVCAR-3
OVCAR-8 = tested on: OVCAR-8
NCI/ADR-RES = tested on: NCI/ADR-RES
UACC-257 = tested on: UACC-257
SNB-19 = tested on: SNB-19
COLO 205 = tested on: COLO 205
KM12 = tested on: KM12
MOLT-4 = tested on: MOLT-4
CCRF-CEM = tested on: CCRF-CEM
HL-60 = tested on: HL-60
SK-MEL-2 = tested on: SK-MEL-2
CAKI-1 = tested on: CAKI-1
SK-MEL-28 = tested on: SK-MEL-28
DU-145 = tested on: DU-145
NCI-H522 = tested on: NCI-H522
786-0 = tested on: 786-0
SF-268 = tested on: SF-268
U-251 = tested on: U-251
Hs-578T = tested on: Hs-578T
HT-29 = tested on: HT-29
K562 = tested on: K562
RXF 393 = tested on: RXF 393
SR = tested on: SR
HOP-92 = tested on: HOP-92

In the case of `CN(c1ccc(Cl)cc1)S(=O)(=O)c1ccc([N+](=O)[O-])cc1`, the GI50 (UO-31) is reported as > 100 µM (inactive), the GI50 (SF-539) is reported as > 100 µM (inactive) and the GI50 (NCI-H460) is reported as > 100 µM (inactive). The GI50 (RPMI-8226) was > 100 µM (inactive), the GI50 (OVCAR-4) was > 100 µM (inactive) and the GI50 (HCT-116) was > 100 µM (inactive). The GI50 (ACHN) was > 100 µM (inactive), the GI50 (NCI-H23) was > 100 µM (inactive) and the GI50 (Malme-3M) was 84.7 µM (inactive). The GI50 (OVCAR-5) was > 100 µM (inactive), the GI50 (UACC-62) was > 100 µM (inactive) and the GI50 (MDA-MB-435) was > 100 µM (inactive). For the same molecule, the GI50 (SF-295) was > 100 µM (inactive), the GI50 (MDA-MB-231) was > 100 µM (inactive) and the GI50 (SNB-75) was > 100 µM (inactive). For the same molecule, the GI50 (SK-MEL-5) was 26 µM (inactive), the GI50 (EKVX) was > 100 µM (inactive) and the GI50 (HOP-62) was > 100 µM (inactive). For the same molecule, the GI50 (M14) was > 100 µM (inactive), the GI50 (SW-620) was > 100 µM (inactive) and the GI50 (T47D) was > 100 µM (inactive). The GI50 (LOX IMVI) was > 100 µM (inactive), the GI50 (MCF7) was > 100 µM (inactive) and the GI50 (TK-10) was > 100 µM (inactive). For the same molecule, the GI50 (NCI-H226) was > 100 µM (inactive), the GI50 (PC-3) was > 100 µM (inactive) and the GI50 (MDA-N) was > 100 µM (inactive). The GI50 (HCT-15) was > 100 µM, the GI50 (HCC 2998) was > 100 µM (inactive) and the GI50 (SK-OV-3) was > 100 µM (inactive). The GI50 (BT-549) was > 100 µM (inactive), the GI50 (A549) was > 100 µM (inactive) and the GI50 (IGROV-1) was > 100 µM (inactive). For the same molecule, the GI50 (SN12C) was > 100 µM (inactive), the GI50 (OVCAR-3) was > 100 µM (inactive) and the GI50 (OVCAR-8) was > 100 µM (inactive). For the same molecule, the GI50 (NCI/ADR-RES) was > 100 µM (inactive), the GI50 (UACC-257) was > 100 µM (inactive) and the GI50 (SNB-19) was > 100 µM (inactive). For the same molecule, the GI50 (COLO 205) was > 100 µM (inactive), the GI50 (KM12) was > 100 µM (inactive) and the GI50 (MOLT-4) was > 100 µM (inactive). For the same molecule, the GI50 (CCRF-CEM) was > 100 µM (inactive), the GI50 (HL-60) was 59.4 µM (inactive) and the GI50 (SK-MEL-2) was > 100 µM (inactive). For the same molecule, the GI50 (CAKI-1) was > 100 µM (inactive), the GI50 (SK-MEL-28) was > 100 µM (inactive) and the GI50 (DU-145) was > 100 µM (inactive). For the same molecule, the GI50 (NCI-H522) was > 100 µM (inactive), the GI50 (786-0) was > 100 µM (inactive) and the GI50 (SF-268) was > 100 µM (inactive). For the same molecule, the GI50 (U-251) was > 100 µM (inactive), the GI50 (Hs-578T) was > 100 µM (inactive) and the GI50 (HT-29) was > 100 µM (inactive). The GI50 (K562) was > 100 µM (inactive) and the GI50 (RXF 393) was > 100 µM (inactive).
In the case of `O=C1C(N2CCNCC2)=C(Cl)C(=O)c2ncccc21`, the GI50 (SF-539) is reported as > 10 µM (inactive), the GI50 (NCI-H460) is reported as > 10 µM (inactive) and the GI50 (RPMI-8226) is reported as 3.37 µM (inactive). For the same molecule, the GI50 (OVCAR-4) was > 10 µM (inactive), the GI50 (HCT-116) was 1.86 µM (inactive) and the GI50 (ACHN) was > 10 µM (inactive). The GI50 (NCI-H23) was > 10 µM (inactive), the GI50 (Malme-3M) was > 10 µM (inactive) and the GI50 (OVCAR-5) was > 10 µM (inactive). The GI50 (UACC-62) was > 10 µM (inactive), the GI50 (MDA-MB-435) was 4.6 µM (inactive) and the GI50 (SF-295) was > 10 µM (inactive). The GI50 (MDA-MB-231) was > 10 µM (inactive), the GI50 (SNB-75) was > 10 µM (inactive) and the GI50 (SK-MEL-5) was 5.79 µM (inactive). The GI50 (EKVX) was > 10 µM (inactive), the GI50 (HOP-62) was > 10 µM (inactive) and the GI50 (M14) was > 10 µM (inactive). For the same molecule, the GI50 (SW-620) was 3.72 µM (inactive), the GI50 (T47D) was > 10 µM (inactive) and the GI50 (SR) was > 10 µM (inactive). The GI50 (HOP-92) was 3.25 µM (inactive), the GI50 (MCF7) was 3.02 µM (inactive) and the GI50 (TK-10) was > 10 µM (inactive). The GI50 (NCI-H226) was > 10 µM (inactive), the GI50 (PC-3) was > 10 µM (inactive) and the GI50 (MDA-N) was 4.47 µM (inactive). The GI50 (HCT-15) was > 10 µM, the GI50 (HCC 2998) was > 10 µM (inactive) and the GI50 (SK-OV-3) was > 10 µM (inactive). For the same molecule, the GI50 (BT-549) was > 10 µM (inactive), the GI50 (A549) was > 10 µM (inactive) and the GI50 (IGROV-1) was > 10 µM (inactive). For the same molecule, the GI50 (SN12C) was > 10 µM (inactive), the GI50 (OVCAR-3) was > 10 µM (inactive) and the GI50 (OVCAR-8) was 6.19 µM (inactive). For the same molecule, the GI50 (UACC-257) was > 10 µM (inactive), the GI50 (SNB-19) was > 10 µM (inactive) and the GI50 (COLO 205) was > 10 µM (inactive). For the same molecule, the GI50 (KM12) was > 10 µM (inactive), the GI50 (MOLT-4) was 2.44 µM (inactive) and the GI50 (CCRF-CEM) was 8.59 µM (inactive). For the same molecule, the GI50 (SK-MEL-2) was > 10 µM (inactive), the GI50 (CAKI-1) was > 10 µM (inactive) and the GI50 (SK-MEL-28) was > 10 µM (inactive). For the same molecule, the GI50 (DU-145) was 6.79 µM (inactive), the GI50 (786-0) was > 10 µM (inactive) and the GI50 (SF-268) was > 10 µM (inactive). For the same molecule, the GI50 (U-251) was > 10 µM (inactive), the GI50 (Hs-578T) was > 10 µM (inactive) and the GI50 (HT-29) was > 10 µM (inactive). For the same molecule, the GI50 (K562) was > 10 µM (inactive) and the GI50 (RXF 393) was > 10 µM (inactive).
